Test results as given in PubChem BioAssay AID1963867 (Molecular Pharmacology Branch, DTP, NCI, 2024).

Test system: KRAS-mutant PDC tumor spheroid with HUVEC/MSC, viability
Assay: Anticancer human tumor 327498-153-R-J2-PDC patient-derived uterine carcinosarcoma cell line growth inhibition [KRAS2]
Conditions: for IC50: curve of first compound; for viability, T/C: stronger effect = lower value
Outline: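 Combination screen of spheroid viability in tumor-cell co-cultures with endothelial (HUVEC) and mesenchymal stem cell stroma. Each agent was tested in half-log dilutions, topping at clinical Cmax or at 10 microM without a known Cmax.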

[1] = second compound 0.1 µM, first compound 0.0316 µM
[2] = second compound 0.1 µM, first compound 0.1 µM
[3] = second compound 0.316 µM, first compound 0.0316 µM
[4] = second compound 0.316 µM, first compound 0.1 µM
[5] = second compound 1 µM, first compound 0.0316 µM
[6] = second compound 1 µM, first compound 0.1 µM
[7] = second compound 3.16 µM, first compound 0.0316 µM
[8] = second compound 3.16 µM, first compound 0.1 µM
[9] = second compound 10 µM, first compound 0.0316 µM
[10] = second compound 10 µM, first compound 0.1 µM
[11] = second compound 0.1 µM, first compound 0.316 µM
[12] = second compound 0.1 µM, first compound 1 µM
[13] = second compound 0.1 µM, first compound 3.16 µM
[14] = second compound 0.1 µM, first compound 10 µM
[15] = second compound 0.316 µM, first compound 0.316 µM
[16] = second compound 0.316 µM, first compound 1 µM
[17] = second compound 0.316 µM, first compound 3.16 µM
[18] = second compound 0.316 µM, first compound 10 µM
[19] = second compound 1 µM, first compound 0.316 µM
[20] = second compound 1 µM, first compound 1 µM
[21] = second compound 1 µM, first compound 3.16 µM
[22] = second compound 1 µM, first compound 10 µM
[23] = second compound 3.16 µM, first compound 0.316 µM
[24] = second compound 3.16 µM, first compound 1 µM
[25] = second compound 3.16 µM, first compound 3.16 µM
[26] = second compound 3.16 µM, first compound 10 µM
[27] = second compound 10 µM, first compound 0.316 µM
[28] = second compound 10 µM, first compound 1 µM
[29] = second compound 10 µM, first compound 3.16 µM
[30] = second compound 10 µM, first compound 10 µM
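Also: spheroids exposed to agents for seven days before reading.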
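For viability, T/C in this document: 100% = DMSO vehicle wells so lower means fewer viable cells.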

Row | SMILES | IC50 (second compound 0.1 µM) | IC50 (second compound 0.316 µM) | IC50 (second compound 1 µM) | IC50 (second compound 3.16 µM) | IC50 (second compound 10 µM) | viability, T/C [1] | viability, T/C [2] | viability, T/C [3] | viability, T/C [4] | viability, T/C [5] | viability, T/C [6] | viability, T/C [7] | viability, T/C [8] | viability, T/C [9] | viability, T/C [10] | viability, T/C [11] | viability, T/C [12] | viability, T/C [13] | viability, T/C [14] | viability, T/C [15] | further results
1 | CN(C)C/C=C/C(=O)Nc1cc2c(Nc3ccc(F)c(Cl)c3)ncnc2cc1O[C@H]1CCOC1 + C=CC(=O)N1CCN(c2nc(=O)n(-c3c(C)ccnc3C(C)C)c3nc(-c4c(O)cccc4F)c(F)cc23)C(C)C1 | < 0.316 nM | > 100 nM | > 100 nM | > 100 nM | > 100 nM | 110% | 109% | 116% | 115% | 115% | 103% | 99.2% | 96.7% | 111% | 115% |  |  |  |  |  | viability, T/C (second compound 0.1 µM, first compound 0.000316 µM): 86.9%; viability, T/C (second compound 0.1 µM, first compound 0.001 µM): 95.8%; viability, T/C (second compound 0.1 µM, first compound 0.00316 µM): 102%; viability, T/C (second compound 0.1 µM, first compound 0.01 µM): 101%; viability, T/C (second compound 0.316 µM, first compound 0.000316 µM): 87.5%; viability, T/C (second compound 0.316 µM, first compound 0.001 µM): 94.9%; viability, T/C (second compound 0.316 µM, first compound 0.00316 µM): 97%; viability, T/C (second compound 0.316 µM, first compound 0.01 µM): 106%; viability, T/C (second compound 1 µM, first compound 0.000316 µM): 85.5%; viability, T/C (second compound 1 µM, first compound 0.001 µM): 97.5%; viability, T/C (second compound 1 µM, first compound 0.00316 µM): 92.8%; viability, T/C (second compound 1 µM, first compound 0.01 µM): 101%; viability, T/C (second compound 3.16 µM, first compound 0.000316 µM): 82.6%; viability, T/C (second compound 3.16 µM, first compound 0.001 µM): 86.9%; viability, T/C (second compound 3.16 µM, first compound 0.00316 µM): 91.8%; viability, T/C (second compound 3.16 µM, first compound 0.01 µM): 96.7%; viability, T/C (second compound 10 µM, first compound 0.000316 µM): 87.2%; viability, T/C (second compound 10 µM, first compound 0.001 µM): 100%; viability, T/C (second compound 10 µM, first compound 0.00316 µM): 99.6%; viability, T/C (second compound 10 µM, first compound 0.01 µM): 105%
2 | COc1cc(Nc2ncc3c(n2)-c2ccc(Cl)cc2C(c2c(F)cccc2OC)=NC3)ccc1C(=O)O + CC1OCC2(CCN(c3cnc(Sc4ccnc(N)c4Cl)c(N)n3)CC2)C1N | < 31.6 nM | < 31.6 nM | < 31.6 nM | < 31.6 nM | < 31.6 nM | 14.7% | 11.3% | 11.9% | 8.86% | 9.52% | 8.62% | 7.99% | 6.54% | 7.28% | 6.61% | 9.61% | 8.46% | 10.4% | 10.4% | 8.33% | viability, T/C [16]: 8.66%; viability, T/C [17]: 9.93%; viability, T/C [18]: 9.67%; viability, T/C [19]: 7.21%; viability, T/C [20]: 7.15%; viability, T/C [21]: 8.7%; viability, T/C [22]: 7.62%; viability, T/C [23]: 6%; viability, T/C [24]: 5.95%; viability, T/C [25]: 6.67%; viability, T/C [26]: 5.35%; viability, T/C [27]: 6.26%; viability, T/C [28]: 6.94%; viability, T/C [29]: 6.28%; viability, T/C [30]: 5.22%
3 | Cn1nccc1Nc1nccc(-c2cc3c(s2)C(C)(C)N(CCN2CCOCC2)C3=O)n1 + CC1OCC2(CCN(c3cnc(Sc4ccnc(N)c4Cl)c(N)n3)CC2)C1N | 644 nM | 61.1 nM | < 31.6 nM | < 31.6 nM | < 31.6 nM | 74.2% | 60.7% | 53.4% | 47% | 37.8% | 39.9% | 30.3% | 29.7% | 23.3% | 22.2% | 59.1% | 45.6% | 39.1% | 36.5% | 43.2% | viability, T/C [16]: 40.4%; viability, T/C [17]: 38.1%; viability, T/C [18]: 27.6%; viability, T/C [19]: 32.1%; viability, T/C [20]: 30.8%; viability, T/C [21]: 28.6%; viability, T/C [22]: 26.4%; viability, T/C [23]: 25.3%; viability, T/C [24]: 22.2%; viability, T/C [25]: 21.9%; viability, T/C [26]: 19.9%; viability, T/C [27]: 16.9%; viability, T/C [28]: 15.8%; viability, T/C [29]: 17.1%; viability, T/C [30]: 15.9%
